Where a name gives a salt, the structure may show the parent alone. Read-outs that look alike come from different tables or passages of the source.
Tests used:
HCoV-OC43 = test: microbe, parasite or virus in culture; assay type: cell-based; conditions: for IC50: read-out: IC50, HCoV-OC43 antiviral assay
A549 cells [1] = conditions: human
SARS-CoV-2 M^pro = SARS-CoV-2 M^pro (Severe acute respiratory syndrome coronavirus 2, UniProt P0DTD1); test: cell-based; conditions: transfected HEK-293T cells, 24 h; for IC50: read-out: IC50 (approximate), SARS-CoV-2 M^pro activity, GFP normalized to TagBFP2
c-Kit enzyme = c-Kit enzyme (Homo sapiens, UniProt P10721); test: Luminescence-based in vitro c-Kit kinase assay; assay type: biochemical
c-Kit enzyme, sequence (P10721 26-976): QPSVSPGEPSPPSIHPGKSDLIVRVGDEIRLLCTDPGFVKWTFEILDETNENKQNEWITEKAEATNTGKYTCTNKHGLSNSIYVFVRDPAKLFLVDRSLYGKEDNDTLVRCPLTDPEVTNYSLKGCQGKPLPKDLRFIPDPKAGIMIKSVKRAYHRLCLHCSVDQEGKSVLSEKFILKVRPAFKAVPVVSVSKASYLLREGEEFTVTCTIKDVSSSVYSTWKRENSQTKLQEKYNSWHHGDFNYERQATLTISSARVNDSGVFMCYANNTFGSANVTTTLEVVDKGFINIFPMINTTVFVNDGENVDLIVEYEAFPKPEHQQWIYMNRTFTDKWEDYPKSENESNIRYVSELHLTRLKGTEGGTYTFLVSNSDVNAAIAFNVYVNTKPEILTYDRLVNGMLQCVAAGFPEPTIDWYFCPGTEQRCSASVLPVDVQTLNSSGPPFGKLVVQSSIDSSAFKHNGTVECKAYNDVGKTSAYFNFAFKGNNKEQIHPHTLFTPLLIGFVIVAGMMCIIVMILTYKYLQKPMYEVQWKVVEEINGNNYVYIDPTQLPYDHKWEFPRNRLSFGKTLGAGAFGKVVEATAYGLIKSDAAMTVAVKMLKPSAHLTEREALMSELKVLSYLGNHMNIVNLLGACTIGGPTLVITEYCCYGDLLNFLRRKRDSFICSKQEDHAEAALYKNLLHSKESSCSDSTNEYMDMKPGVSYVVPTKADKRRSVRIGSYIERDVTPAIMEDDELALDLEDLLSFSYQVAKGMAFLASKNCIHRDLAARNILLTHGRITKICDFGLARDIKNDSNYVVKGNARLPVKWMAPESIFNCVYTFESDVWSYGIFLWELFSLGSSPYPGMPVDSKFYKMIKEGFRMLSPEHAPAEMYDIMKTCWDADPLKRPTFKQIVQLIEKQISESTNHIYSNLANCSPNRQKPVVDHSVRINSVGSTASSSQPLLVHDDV

M^pro = conditions: masitinib activity on M^pro; read-out: inhibition constant, Ki; cited from earlier work
A549 cells [2] = test: Compound toxicity assay, live cell imaging of A549 cell growth; conditions: compared to DMSO
[3] = A549+hACE2 cells, MOI 0.1, 48 h, normalized to DMSO

With Cc1ccc(NC(=O)c2ccc(CN3CCN(C)CC3)cc2)cc1Nc1nc(-c2cccnc2)cs1 [masitinib (Original), masitinib] the IC50 (HCoV-OC43; Betacoronavirus 1, OC43, 48 h) was 1.71 µM.

For CC(=O)Nc1ccc(C)c(Nc2nc(-c3cccnc3)cs2)c1 [M4], the IC50 (HCoV-OC43; Betacoronavirus 1, OC43, 48 h) was 5.7 µM, the “Doubling Time” value (A549 cells [1]; 0.3 µM) was 22.01 h and the “Doubling Time” value (A549 cells [1]; 1 µM) was 21.47 h. The “Doubling Time” value (A549 cells [1]; 3 µM) was 22.28 h and the “Doubling Time” value (A549 cells [1]; 10 µM) was 37.36 h.

Cc1ccc(NC(=O)c2ccc(CN3CCN(C)CC3)cc2O)cc1Nc1nc(-c2cccnc2)cs1 [M2] showed an IC50 (HCoV-OC43; Betacoronavirus 1, OC43, 48 h) of 6.77 µM, an IC50 (SARS-CoV-2 M^pro) of 8.35 µM and an IC50 (c-Kit enzyme) of 0.233 µM. The “Doubling Time” value (A549 cells [1]; 0.3 µM) was 21.52 h, the “Doubling Time” value (A549 cells [1]; 1 µM) was 21.44 h and the “Doubling Time” value (A549 cells [1]; 3 µM) was 21.57 h. For the same compound, the “Doubling Time” value (A549 cells [1]; 10 µM) was 33.63 h.

In the case of Cc1ccc(NC(=O)c2ccc(CN3CCN(C)CC3)cc2)cc1Nc1nc(-c2cccnc2)cs1 [masitinib], the Ki (M^pro) is listed as 2.6 µM.

With Cc1ccc(NC(=O)c2ccc(CN3CCN(C)CC3)c(O)c2)cc1Nc1nc(-c2cccnc2)cs1 [M1] the IC50 (HCoV-OC43; Betacoronavirus 1, OC43, 48 h) was 4.7 µM, the “IC50 (approximate), SARS-CoV-2 M^pro activity, GFP normalized to TagBFP2” value (SARS-CoV-2 M^pro) was “did not show inhibition of M^pro activity” and the IC50 (c-Kit enzyme) was 1.09 µM. The “Doubling Time” value (A549 cells [1]; 0.3 µM) was 21.75 h, the “Doubling Time” value (A549 cells [1]; 1 µM) was 21.89 h and the “Doubling Time” value (A549 cells [1]; 3 µM) was 23.72 h. The “Doubling Time” value (A549 cells [1]; 10 µM) was 52.78 h.

For Cc1ccc(C(=O)Nc2ccc(C)c(Nc3nc(-c4cccnc4)cs3)c2)cc1 [M3], the IC50 (HCoV-OC43; Betacoronavirus 1, OC43, 48 h) was 3.99 µM, the IC50 (SARS-CoV-2 M^pro) was 2.54 µM and the IC50 (c-Kit enzyme) was 0.077 µM. For the same compound, the “Doubling Time” value (A549 cells [1]; 0.3 µM) was 22.13 h, the “Doubling Time” value (A549 cells [1]; 1 µM) was 21.49 h and the “Doubling Time” value (A549 cells [1]; 3 µM) was 22.49 h. For the same compound, the “Doubling Time” value (A549 cells [1]; 10 µM) was 30.76 h.

For Cc1ccc(NC(=O)c2ccc(CN3CCN(C)CC3)cc2)cc1Nc1nc(-c2cccnc2)cs1 [masitinib (TFA), Masitinib trifluoroacetate salt], the IC50 (HCoV-OC43; [3]) was 3.98 µM, the “effect on cell growth (in words)” value (A549 cells [2]; 3 µM dose) was “still inhibited cell division” and the “effect on cell growth (in words)” value (A549 cells [2]; 10 µM compound dose) was “completely inhibited cell growth”.

For Cc1ccc(OC(=O)c2ccc(CN3CCN(C)CC3)cc2)cc1Nc1nc(-c2cccnc2)cs1 [M5], the “IC50, HCoV-OC43 antiviral assay” value (HCoV-OC43; [3]) was “no measurable antiviral activity”, the “Doubling Time” value (A549 cells [1]; 0.3 µM) was 22.37 h and the “Doubling Time” value (A549 cells [1]; 1 µM) was 21.95 h. The “Doubling Time” value (A549 cells [1]; 3 µM) was 21.83 h and the “Doubling Time” value (A549 cells [1]; 10 µM) was 25.19 h.
